Results taken from patent US20020155192A1, “Yeast transport isoforms” (priority 2000, published 2002).
Where two headings read alike, the source gives them in different places.

Legend:
Odc1p = target: T1, Odc1p (Saccharomyces cerevisiae, UniProt Q03028); experiment: Effect of inhibitors and external compounds on the [14C]oxoglutarate/oxoglutarate exchange by proteoliposomes reconstituted with Odc1p; type: biochemical; details: for Inhibition (%) of [14C]oxoglutarate/oxoglutarate exchange: 20 mM internal oxoglutarate, 0.4 mM [14C]oxoglutarate, 45 seconds, inhibitors 4 mM, except mercurials 10 μM, carboxyatractyloside 0.1 mM, N-ethylmaleimide and α-cyanocinnamate 2 mM; for inhibition of [14C]oxoglutarate/oxoglutarate exchange (in words): Table III
T1 construct: made in house; host or cells: S. cerevisiae odc1Δodc2Δ (YPH499 background) carrying pYES2-based pODC1; purified from mitochondria on Ni-NTA agarose
T1 sequence (Q03028 1-310): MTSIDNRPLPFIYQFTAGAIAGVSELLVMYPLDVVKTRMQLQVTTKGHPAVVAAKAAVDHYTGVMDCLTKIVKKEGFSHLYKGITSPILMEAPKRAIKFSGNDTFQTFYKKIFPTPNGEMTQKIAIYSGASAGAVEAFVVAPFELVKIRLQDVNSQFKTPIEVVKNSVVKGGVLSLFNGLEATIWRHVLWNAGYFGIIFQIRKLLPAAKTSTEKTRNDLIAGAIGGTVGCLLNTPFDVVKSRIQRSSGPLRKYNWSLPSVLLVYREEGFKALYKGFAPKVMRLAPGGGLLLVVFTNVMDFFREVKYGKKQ
Description: FIG. 5. Effect of dicarboxylates and 2-oxodicarboxylates with different carbon chain length on the rate of [^14C]oxoglutarate uptake into proteoliposomes reconstituted with recombinant Odc1p. Proteoliposomes were preloaded with 20 mM oxoglutarate and reconstituted with recombinant Odc1p. Transport was initiated by the addition of 0.4 mM [^14C]oxoglutarate and terminated after 45 seconds. Oxalate, malonate, succinate, glutarate, adipate, pimelate, suberate (▪) and the corresponding 2-oxoacids (●) were added simultaneously with [1^4C]oxoglutarate at 4.0 mM concentration.
(§1) Reconstitution of the ODC proteins into liposomes—Purified ODC proteins were reconstituted by cyclic removal of the detergent with a hydrophobic column (13). The composition of the initial mixture used for reconstitution was: 200 μl of purified isoform (0.3-0.4 μg of protein), 70 μl of 10% Triton X-114, 100 μl of 10% phospholipids in the form of sonicated liposomes, 20 mM oxoglutarate (except where otherwise indicated), 10 mM Pipes (pH 7.0), 0.7 mg of cardiolipin (Sigma) and water to a final volume of 700 μl. These components were mixed thoroughly, and the mixture was recycled 13 times through an Amberlite column (Supelco) (3.0 cm×0.5 cm) preequilibrated with a buffer containing 10 mM Pipes (pH 7.0) and with the substrate at the same concentration as in the starting mixture. All operations were performed at 4° C., except the passages through Amberlite, which were carried out at room temperature.
(§2) External substrate was removed from proteoliposomes on a Sephadex G-75 column preequilibrated with buffer F (50 mM NaCl and 10 mM PIPES, pH 7.0). Transport at 25° C. was started by adding [^14C]oxoglutarate (unless otherwise indicated) to the proteoliposomes, and terminated by addition of 30 mM pyridoxal 5′-phosphate and 10 mM bathophenanthroline (the “inhibitor-stop” method (13)). In controls, inhibitors were added with the labelled substrate. The external radioactivity was removed on Sephadex G-75 and the internal radioactivity was measured. […] The initial rate of transport was calculated in mmol/min per g protein from the time course of isotope equilibration (13). Various other transport activities were also assayed by the inhibitor-stop method. For efflux measurements, the internal substrate pool of the proteoliposomes was made radioactive by carrier-mediated exchange equilibration (13) with 0.1 mM [^14C]oxoglutarate added at high specific radioactivity. After 60 min, the residual external radioactivity was removed by passing the proteoliposomes again through a column of Sephadex G-75. Efflux was started by adding unlabelled external substrate or buffer F alone and terminated by adding the inhibitors indicated above.
(§3) In addition, the ability of non-radioactive potential substrates to inhibit the oxoglutarate/oxoglutarate exchange was examined.
Proteoliposomes were preloaded internally with 20 mM oxoglutarate and transport was initiated by the addition of 0.4 mM [^14C]oxoglutarate.

Odc2p = target: T2, Odc2p (Saccharomyces cerevisiae, UniProt Q99297); experiment: Effect of inhibitors and external compounds on the [14C]oxoglutarate/oxoglutarate exchange by proteoliposomes reconstituted with Odc2p; type: biochemical; details: for Inhibition (%) of [14C]oxoglutarate/oxoglutarate exchange: 20 mM internal oxoglutarate, 0.4 mM [14C]oxoglutarate, 45 seconds, inhibitors 4 mM, except mercurials 10 μM, carboxyatractyloside 0.1 mM, N-ethylmaleimide and α-cyanocinnamate 2 mM; for inhibition of [14C]oxoglutarate/oxoglutarate exchange (in words): Table III
T2 construct: made in house; host or cells: S. cerevisiae odc1Δodc2Δ (YPH499 background) carrying pYES2-based pODC2; purified from mitochondria on Ni-NTA agarose
T2 sequence (Q99297 1-307): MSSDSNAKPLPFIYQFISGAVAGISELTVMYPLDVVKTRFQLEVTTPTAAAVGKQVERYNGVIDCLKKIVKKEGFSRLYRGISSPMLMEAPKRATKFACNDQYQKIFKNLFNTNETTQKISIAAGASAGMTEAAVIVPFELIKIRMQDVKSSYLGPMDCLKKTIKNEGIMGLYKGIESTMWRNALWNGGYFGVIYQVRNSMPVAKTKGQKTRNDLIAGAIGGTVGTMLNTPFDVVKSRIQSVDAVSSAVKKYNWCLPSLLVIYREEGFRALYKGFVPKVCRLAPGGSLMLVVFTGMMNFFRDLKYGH
Description: as §1, §2, §3
Proteoliposomes were preloaded internally with 20 mM oxoglutarate and transport was initiated by the addition of 0.4 mM [^14C]oxoglutarate. The incubation time was 45 seconds. Thiol reagents and α-cyanocinnamate were added 2 min before the labelled substrate; the other inhibitors and external substrates were added together with [^14C]oxoglutarate. The final concentration of the inhibitors was 4 mM, except for mercurials (10 μM), carboxyatractyloside (0.1 mM), N-ethylmaleimide and α-cyanocinnamate (2 mM).

[1] = Odc1p, added with 0.4 mM [14C]oxoglutarate, 4.0 mM in FIG. 5, partly data not shown

effect of non-radioactive potential substrates on the rate of oxoglutarate uptake (in words) (Odc1p; [1]) | effect of non-radioactive potential substrates on the rate of oxoglutarate uptake (in words) (Odc2p; Odc2p, data not shown) | Molecule | Inhibition (%) of [14C]oxoglutarate/oxoglutarate exchange (Odc1p; Odc1p) [%] | inhibition of [14C]oxoglutarate/oxoglutarate exchange (in words) (Odc1p; Odc1p) | Inhibition (%) of [14C]oxoglutarate/oxoglutarate exchange (Odc2p; Odc2p) [%] | inhibition of [14C]oxoglutarate/oxoglutarate exchange (in words) (Odc2p; Odc2p) | also measured
– | – | CC(=O)CCCC(=O)O [5-oxohexanoate] | – | – | – | – | effect of oxomonocarboxylates on the rate of uptake of 0.4 mM oxoglutarate (in words) (Odc1p; Odc1p, 8 mM, 20 times greater than the substrate, data not shown): did not influence; effect of oxomonocarboxylates on the rate of uptake of 0.4 mM oxoglutarate (in words) (Odc2p; Odc2p, 8 mM, 20 times greater than the substrate, data not shown): did not influence
– | – | [Cl][Hg][Cl] [HgCl2, mercuric chloride] | 100 | inhibited strongly | 98 | inhibited strongly | –
– | – | N=C(N)NCCC[C@H](N)C(=O)O [arginine] | – | – | – | – | effect of non-radioactive potential substrates on the rate of oxoglutarate uptake (in words) (Odc1p): no effect; effect of non-radioactive potential substrates on the rate of oxoglutarate uptake (in words) (Odc2p): no effect
no effect | no effect | NCC(=O)O [glycine] | – | – | – | – | –
– | – | CCN1C(=O)C=CC1=O [N-Ethylmaleimide] | 65 | inhibited considerably | 43 | inhibited considerably | –
no effect | no effect | N[C@@H](CO)C(=O)O [serine] | – | – | – | – | –
no effect | no effect | CC(C)[C@H](N)C(=O)O [valine] | – | – | – | – | –
no effect | no effect | NCCCC[C@H](N)C(=O)O [lysine] | – | – | – | – | –
– | – | hydroxyglutarate | – | – | – | – | effect of non-radioactive potential substrates on the rate of oxoglutarate uptake (in words) (Odc1p): slightly less effective than glutarate; effect of non-radioactive potential substrates on the rate of oxoglutarate uptake (in words) (Odc2p): slightly less effective than glutarate
– | – | C=C1[C@@H]2CC[C@H]3[C@]4(C)C[C@H](O[C@@H]5O[C@H](CO)[C@@H](OS(=O)(=O)O)[C@H](OS(=O)(=O)O)[C@H]5OC(=O)CC(C)C)CC(C(=O)O)(C(=O)O)[C@H]4CC[C@]3(C2)[C@H]1O [Carboxyatractyloside] | 7 | little or no effect | 10 | little or no effect | –
completely ineffective | completely ineffective | O=C(O)C(O)C(=O)O [tartronate] | – | – | – | – | –
– | – | O=S(=O)(O)c1cc[c]([Hg][Cl])cc1 [p-Chloromercuriphenylsulfonate] | 98 | inhibited strongly | 100 | inhibited strongly | –
– | – | O=C(O)CC(O)C(=O)O (stereo not shown) [malate] | – | – | – | – | increase of the extent of inhibition of oxoglutarate uptake with respect to the corresponding dicarboxylate (Odc1p; Odc1p, C4 hydroxydicarboxylate versus C4 dicarboxylate, not shown): about 10 fold; increase of the extent of inhibition of oxoglutarate uptake with respect to the corresponding dicarboxylate (Odc2p; Odc2p, C4 hydroxydicarboxylate versus C4 dicarboxylate, not shown): about 10 fold
– | – | CCCCC(C(=O)O)C(=O)O [Butylmalonate] | 118 | rather poorly | 25 | rather poorly | –
– | – | O=C(O)c1cccc(C(=O)O)c1C(=O)O [1,2,3-Benzenetricarboxylate] | 41 | rather mild inhibitory effect | 37 | rather mild inhibitory effect | –
– | – | O=C(O)CC(C(=O)O)c1ccccc1 (stereo not shown) [Phenylsuccinate] | 23 | rather poorly | 22 | rather poorly | –
– | – | N#C/C(=C\c1ccccc1)C(=O)O [α-Cyanocinnamate] | 86 | inhibited strongly | 80 | inhibited strongly | –
no effect | no effect | C[C@H](N)C(=O)O [alanine] | – | – | – | – | –
– | – | COC(CNC(=O)c1ccccc1OCC(=O)O)[CH2][Hg][OH] (stereo not shown) [Mersalyl] | – | inhibited strongly | 100 | inhibited strongly | –
no effect | no effect | N[C@@H](Cc1c[nH]cn1)C(=O)O [histidine] | – | – | – | – | –
no effect | no effect | C[C@@H](O)[C@H](N)C(=O)O [threonine] | – | – | – | – | –
no affect | no affect | NC(C(=O)O)C(O)C(=O)O (racemic) [DL-Threo-hydroxyaspartate] | – | – | – | – | –
no effect | no effect | NC(=O)C[C@H](N)C(=O)O [asparagine] | – | – | – | – | –

Molecule | effect of non-radioactive potential substrates on the rate of oxoglutarate uptake (in words) (Odc1p; [1]) | effect of non-radioactive potential substrates on the rate of oxoglutarate uptake (in words) (Odc2p; Odc2p, data not shown) | Inhibition (%) of [14C]oxoglutarate/oxoglutarate exchange (Odc1p; Odc1p) [%] | inhibition of [14C]oxoglutarate/oxoglutarate exchange (in words) (Odc1p; Odc1p) | Inhibition (%) of [14C]oxoglutarate/oxoglutarate exchange (Odc2p; Odc2p) [%] | inhibition of [14C]oxoglutarate/oxoglutarate exchange (in words) (Odc2p; Odc2p) | also measured
O=C(O)[C@@H](O)[C@H](O)C(=O)O [D-tartrate] | more efficiently than succinate | more efficiently than succinate | – | – | – | – | –
O=C(O)[C@H](O)[C@@H](O)C(=O)O [L-tartrate] | more efficiently than succinate | more efficiently than succinate | – | – | – | – | –
